The target of this assay is T1, chicken gizzard smooth muscle myosin subfragment-1 chemically crosslinked to cardiac or skeletal actin (Gallus gallus, UniProt P10587).
T1 construct: chicken gizzard smooth muscle myosin subfragment-1; from tissue; host or cells: chicken gizzard
Nature of the assay: Smooth muscle myosin ATPase dose response assay (pyruvate kinase/horseradish peroxidase/pyruvate oxidase-coupled, amplex red fluorescence). It counts as biochemical. Particulars: read-out: IC50 Arithmetic Mean. Put shortly:
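Lead-optimization format: ATPase coupled via pyruvate kinase, pyruvate oxidase and peroxidase, pH 7.00 at 22° C, with 0.15 mM ATP, 100 mM KCl, 2 mM MgCl2, 2 mM phosphate and 0.1 mM amplex red (final). Crosslinked S1 titrated empirically for set hydrolysis rate; fluorescence (ex 480/em 615 nm) dose curves fit 4-parameter for IC50.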

Each structure is given as a SMILES string.

T1 sequence (P02607 2-151): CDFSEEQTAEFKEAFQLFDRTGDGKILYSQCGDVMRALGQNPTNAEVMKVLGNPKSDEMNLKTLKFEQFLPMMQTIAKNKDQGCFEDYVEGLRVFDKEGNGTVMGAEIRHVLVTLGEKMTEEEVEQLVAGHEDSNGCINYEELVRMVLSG
T1 sequence (P10587 84-789): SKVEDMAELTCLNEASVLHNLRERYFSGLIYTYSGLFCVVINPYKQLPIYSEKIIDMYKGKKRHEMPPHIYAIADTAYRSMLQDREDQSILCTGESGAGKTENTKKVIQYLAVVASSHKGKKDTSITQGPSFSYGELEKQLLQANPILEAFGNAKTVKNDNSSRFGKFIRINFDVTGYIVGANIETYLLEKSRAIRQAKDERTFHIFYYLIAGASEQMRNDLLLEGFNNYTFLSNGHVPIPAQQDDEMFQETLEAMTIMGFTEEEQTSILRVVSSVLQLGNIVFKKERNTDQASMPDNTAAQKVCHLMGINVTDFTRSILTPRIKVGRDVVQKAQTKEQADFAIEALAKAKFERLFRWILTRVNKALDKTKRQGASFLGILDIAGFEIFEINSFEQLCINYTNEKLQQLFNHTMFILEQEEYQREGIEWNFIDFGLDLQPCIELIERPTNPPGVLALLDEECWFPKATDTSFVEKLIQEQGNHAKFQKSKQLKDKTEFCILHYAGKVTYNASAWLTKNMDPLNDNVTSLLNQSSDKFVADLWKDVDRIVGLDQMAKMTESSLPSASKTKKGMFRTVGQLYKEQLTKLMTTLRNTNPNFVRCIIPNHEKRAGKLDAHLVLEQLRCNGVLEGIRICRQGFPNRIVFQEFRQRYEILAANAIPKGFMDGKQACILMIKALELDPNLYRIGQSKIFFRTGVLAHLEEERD

Usually IC50 stands for the concentration that inhibits the measured activity by half. Regarding `N#Cc1ccc(CNC(=O)c2ccc(-c3ccccc3)nc2NCCc2cccc(F)c2)cn1` [N-[(6-cyano(3-pyridyl))methyl](2-{[2-(3-fluorophenyl)ethyl]amino}-6-phenyl(3-pyridyl))carboxamide], the IC50 stood at 1.24 µM.
As to `N#Cc1ccccc1-c1ccc(C(=O)NCc2cccc(CNCCN)n2)c(NCCc2cccc(F)c2)n1` [N-[(6-{[(2-aminoethyl)amino]methyl}(2-pyridyl))methyl](6-(2-cyanophenyl)-2-{[2-(3-fluorophenyl)ethyl]amino}(3-pyridyl))carboxamide], the IC50 came out at 0.019 µM.
Take `N#Cc1ccccc1-c1ccc(C(=O)NC[C@H]2CCCCN2)c(NCCc2cccc(F)c2)n1` [N-[((2R)(2-piperidyl))methyl](6-(2-cyanophenyl)-2-{[2-(3-fluorophenyl)ethyl]amino}(3-pyridyl))carboxamide]: the IC50 worked out at 1.16 µM.
`CC(=O)N1CCCC[C@@H]1CNC(=O)c1ccc(-c2ccccc2C#N)nc1NCCc1cccc(F)c1` [N-[((2R)-1-acetyl(2-piperidyl))methyl](6-(2-cyanophenyl)-2-{[2-(3-fluorophenyl)ethyl]amino}(3-pyridyl))carboxamide]: the half-maximal inhibitory concentration (IC50) turned out to be 2.68 µM.
Then `CC(=O)N1CC[C@@H]1CNC(=O)c1ccc(-c2ccccc2C#N)nc1NCCc1cccc(F)c1` [N-[((2R)-1-acetylazetidin-2-yl)methyl](6-(2-cyanophenyl)-2-{[2-(3-fluorophenyl)ethyl]amino}(3-pyridyl))carboxamide], with 0.043 µM; and `CC(=O)N1CCNC[C@@H]1CNC(=O)c1ccc(-c2ccccc2C#N)nc1NCCc1cccc(F)c1` [N-[((2R)-1-acetylpiperazin-2-yl)methyl](6-(2-cyanophenyl)-2-{[2-(3-fluorophenyl)ethyl]amino}(3-pyridyl))carboxamide], with 7.44 µM.
Consider `CC(=O)N1CCC[C@@H]1CNC(=O)c1ccc(-c2ccccc2C#N)nc1NCCc1cccc(F)c1` [N-[((2R)-1-acetylpyrrolidin-2-yl)methyl](6-(2-cyanophenyl)-2-{[2-(3-fluorophenyl)ethyl]amino}(3-pyridyl))carboxamide], for which the IC50 was 0.119 µM.
For `CN1CCCC[C@@H]1CNC(=O)c1ccc(-c2ccccc2C#N)nc1NCCc1cccc(F)c1` [N-[((2R)-1-methyl(2-piperidyl))methyl](6-(2-cyanophenyl)-2-{[2-(3-fluorophenyl)ethyl]amino}(3-pyridyl))carboxamide], the IC50 is 0.488 µM.
`CN1CCNC[C@@H]1CNC(=O)c1ccc(-c2ccccc2C#N)nc1NCCc1cccc(F)c1` [N-[((2R)-1-methylpiperazin-2-yl)methyl](6-(2-cyanophenyl)-2-{[2-(3-fluorophenyl)ethyl]amino}(3-pyridyl))carboxamide]: the IC50 came out at 15.7 µM.
Then `CN1CCC[C@@H]1CNC(=O)c1ccc(-c2ccccc2C#N)nc1NCCc1cccc(F)c1` [N-[((2R)-1-methylpyrrolidin-2-yl)methyl](6-(2-cyanophenyl)-2-{[2-(3-fluorophenyl)ethyl]amino}(3-pyridyl))carboxamide], with 0.214 µM; and `CC(C)(C)OC(=O)NCC(=O)N1CC[C@@H]1CNC(=O)c1ccc(-c2cn[nH]c2)nc1NCCc1cccc(F)c1` [N-[((2R)-1-{2-[(tert-butoxy)carbonylamino]acetyl}azetidin-2-yl)methyl](2-{[2-(3-fluorophenyl)ethyl]amino}-6-pyrazol-4-yl(3-pyridyl))carboxamide], with 2.99 µM; and `Cn1cc(-c2nc(NCCc3cccc(F)c3)c(C(=O)NC[C@H]3CCN3C(=O)CNC(=O)OC(C)(C)C)cc2F)cn1` [N-[((2R)-1-{2-[(tert-butoxy)carbonylamino]acetyl}azetidin-2-yl)methyl](5-fluoro-2-{[2-(3-fluorophenyl)ethyl]amino}-6-(1-methylpyrazol-4-yl)(3-pyridyl))carboxamide], with 0.436 µM.
Regarding `Cn1cc(-c2ccc(C(=O)NC[C@H]3CCCN3C(=O)CNC(=O)OC(C)(C)C)c(NCCc3cccc(F)c3)n2)cn1` [N-[((2R)-1-{2-[(tert-butoxy)carbonylamino]acetyl}pyrrolidin-2-yl)methyl](2-{[2-(3-fluorophenyl)ethyl]amino}-6-(1-methylpyrazol-4-yl)(3-pyridyl))carboxamide], the IC50 was 5.53 µM.
On to `Cn1cc(-c2nc(NCCc3cccc(F)c3)c(C(=O)NC[C@H]3CCCN3C(=O)CNC(=O)OC(C)(C)C)cc2F)cn1` [N-[((2R)-1-{2-[(tert-butoxy)carbonylamino]acetyl}pyrrolidin-2-yl)methyl](5-fluoro-2-{[2-(3-fluorophenyl)ethyl]amino}-6-(1-methylpyrazol-4-yl)(3-pyridyl))carboxamide], for which the 50% inhibitory concentration (IC50) came to 0.625 µM.
Take `CC(C)(C)OC(=O)NCC(=O)N1CCC[C@@H]1CNC(=O)c1cc(F)c(-c2cn[nH]c2)nc1NCCc1cccc(F)c1` [N-[((2R)-1-{2-[(tert-butoxy)carbonylamino]acetyl}pyrrolidin-2-yl)methyl](5-fluoro-2-{[2-(3-fluorophenyl)ethyl]amino}-6-pyrazol-4-yl(3-pyridyl))carboxamide]: the IC50 is 1.08 µM.
The value for `CC(C)(C)OC(=O)NCC(=O)N1CCC[C@@H]1CNC(=O)c1cc(F)c(-c2ccccc2C#N)nc1NCCc1cccc(F)c1` [N-[((2R)-1-{2-[(tert-butoxy)carbonylamino]acetyl}pyrrolidin-2-yl)methyl](6-(2-cyanophenyl)-5-fluoro-2-{[2-(3-fluorophenyl)ethyl]amino}(3-pyridyl))carboxamide] was 2.79 µM.
Take `CC(C)(C)OC(=O)NCCN1CCC[C@@H]1CNC(=O)c1ccc(-c2ccccc2C#N)nc1NCCc1cccc(F)c1` [N-[((2R)-1-{2-[(tert-butoxy)carbonylamino]ethyl}pyrrolidin-2-yl)methyl](6-(2-cyanophenyl)-2-{[2-(3-fluorophenyl)ethyl]amino}(3-pyridyl))carboxamide]: the 50% inhibitory concentration (IC50) was found to be 3.69 µM.
Take `Cn1cc(-c2ccc(C(=O)NC[C@H]3CCCN3C(=O)CCNC(=O)OC(C)(C)C)c(NCCc3cccc(F)c3)n2)cn1` [N-[((2R)-1-{3-[(tert-butoxy)carbonylamino]propanoyl}pyrrolidin-2-yl)methyl](2-{[2-(3-fluorophenyl)ethyl]amino}-6-(1-methylpyrazol-4-yl)(3-pyridyl))carboxamide]: the IC50 came out at 5.03 µM.
The value for `Cn1cc(-c2nc(NCCc3cccc(F)c3)c(C(=O)NC[C@H]3CCCN3C(=O)CCNC(=O)OC(C)(C)C)cc2F)cn1` [N-[((2R)-1-{3-[(tert-butoxy)carbonylamino]propanoyl}pyrrolidin-2-yl)methyl](5-fluoro-2-{[2-(3-fluorophenyl)ethyl]amino}-6-(1-methylpyrazol-4-yl)(3-pyridyl))carboxamide] was 0.505 µM.
As to `CC(C)(C)OC(=O)NCCC(=O)N1CCC[C@@H]1CNC(=O)c1cc(F)c(-c2cn[nH]c2)nc1NCCc1cccc(F)c1` [N-[((2R)-1-{3-[(tert-butoxy)carbonylamino]propanoyl}pyrrolidin-2-yl)methyl](5-fluoro-2-{[2-(3-fluorophenyl)ethyl]amino}-6-pyrazol-4-yl(3-pyridyl))carboxamide], the half-inhibitory concentration (IC50) is 0.98 µM.
The value for `CC(C)(C)OC(=O)NCCC(=O)N1CCC[C@@H]1CNC(=O)c1cc(F)c(-c2ccccc2C#N)nc1NCCc1cccc(F)c1` [N-[((2R)-1-{3-[(tert-butoxy)carbonylamino]propanoyl}pyrrolidin-2-yl)methyl](6-(2-cyanophenyl)-5-fluoro-2-{[2-(3-fluorophenyl)ethyl]amino}(3-pyridyl))carboxamide] was 2.77 µM.

Values taken from patent publication US7932270B2 (Cytokinetics, Inc., priority 2006, dated 2011).
